Publication PMC11123931, “The Synergistic Effect of N2 and N7 Modifications on the Inhibitory Efficacy of mRNA Cap Analogues” (Pharmaceuticals, 2024)
Like-named read-outs stand apart in the source and are kept apart here.

Assays:
[1] = molecular target: cap-dependent translation in rabbit reticulocyte lysate (RRL); assay: Inhibition of cap-dependent translation of ARCA-capped luciferase mRNA in rabbit reticulocyte lysate (RRL); type: biochemical; settings: for IC50: ARCA-capped luciferase mRNA, 1% DMSO final concentration, read-out: IC50^DMSO ± SE; for Inhibition Relative to m^7GMP IC50^DMSO (m^7GMP)/ IC50^DMSO (Cap Analogue) / Inhibition Relative to m^7GpppG IC50^DMSO (m^7GpppG)/ IC50^DMSO (Cap Analogue): 1% DMSO
Method: To estimate the ability of the newly synthesized double-modified nucleotides to inhibit cap-dependent translation, the […] translation system from rabbit reticulocytes lysate (RRL) was used according to previously described procedures. This procedure was implemented because it mimics the competition between the cap analogue and the mRNA in the all-natural system. Briefly, experiments were performed in a micrococcal nuclease-treated RRL using an in vitro-transcribed, ARCA-capped, β-globin 5′ UTR containing mRNA encoding firefly luciferase to allow for the determination of protein synthesis by luminometry. […] Initially, the compounds were prepared in an aqueous solution containing 10% DMSO, and inhibition was measured at a final concentration of 1% DMSO. Incubations were conducted at several series of inhibitor concentrations in three independent measurement series (Figure 4).
Stock solutions were subsequently used for serial dilutions (in 10% DMSO). […] Experiments of the inhibition of the cap-dependent translation in rabbit reticulocyte lysate (Flexi RRL System, Promega) were performed as previously described. […] Next, 1.25 μL of the tested compound (as a solution in 10% DMSO) and m2^7,3′OGpppG-capped luciferase mRNA (to a final concentration of 5 ng/μL) was added to the reaction, and the translation mixture (12.5 μL final volume) was incubated for an additional 60 min. As a reference, reactions with DMSO (1.25 μL of 10% solution) were prepared. The reactions were stopped by chilling on ice, and the luciferase activity was determined in a Glomax luminometer (Promega). The IC50 values were obtained by fitting to the experimental data a theoretical curve that describes the extent of inhibition as a function of competitive inhibitor (e.g., cap analogue) concentration.

[2] = test system: cap-dependent translation in rabbit reticulocyte lysate (RRL); settings: cited from earlier work; for IC50: RRL, water solutions without DMSO, previously determined, read-out: IC50^WATER ± SE; for times more potent inhibition than the standard dinucleotide m^7GpppG: pure water without DMSO
[3] = molecular target: T1, human eIF4E (heIF4E) (Homo sapiens, UniProt P06730); assay: Thermal stabilization of heIF4E by differential scanning fluorimetry (DSF); type: binding; settings: 1% DMSO; for Relative Change in Affinity to m^7GMP: DSF appK ratio; for Kd: from ΔTm versus ligand concentration, single site ligand binding model, read-out: appK ± SE (apparent affinity to heIF4E)
T1 construct: The thermal stability of human full-length eIF4E (heIF4E) was analyzed; made in house
Method: The thermal stability of human full-length eIF4E (heIF4E) was analyzed using differential scanning fluorimetry (DSF), similar to that described previously for murine eIF4E [30]. heIF4E was expressed and purified as described earlier. The assay sample (20 μL) contained 5× SYPRO Orange (Sigma Aldrich, St. Louis, MO, USA) and 4 μM of heIF4E (final concentration) in HEPES/KOH with 100 mM KCl, 0.5 mM EDTA, and 1 mM DTT (pH 7.2). The tested compounds, as 10× stocks in 10% DMSO, were added to the final concentration at a range from 1 μM to 200 μM. DMSO at a 1% final concentration was then added to the control reactions without any compounds. […] The melting temperature (Tm) was determined as the minimum of the first negative derivative with the built-in CFX Manager Software (Bio-Rad).

[4] = test system: cap-dependent translation; settings: 1% DMSO solution; cited from earlier work
[5] = Solubility in water; type: physicochemical
[6] = listed as (4-(diOCH3-bn)-tz-CH2)2bn^7GpppG (4)

T1 sequence (P06730 whole entry): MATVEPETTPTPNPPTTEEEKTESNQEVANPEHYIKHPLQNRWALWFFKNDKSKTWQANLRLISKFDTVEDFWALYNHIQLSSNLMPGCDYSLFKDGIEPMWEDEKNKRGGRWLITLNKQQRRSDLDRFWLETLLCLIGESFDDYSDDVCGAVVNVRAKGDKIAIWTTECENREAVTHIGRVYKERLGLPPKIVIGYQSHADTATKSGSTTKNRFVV

IC50 [1] [µM] | Inhibition Relative to m^7GMP IC50^DMSO (m^7GMP)/ IC50^DMSO (Cap Analogue) [1] | Inhibition Relative to m^7GpppG IC50^DMSO (m^7GpppG)/ IC50^DMSO (Cap Analogue) [1] | Kd ([3]; DSF) [µM] | Molecule | IC50 [2] [µM] | other results
1.09 ± 0.14 |  |  |  | Cn1c[n+]([C@@H]2O[C@H](COP(=O)([O-])OP(=O)(O)OP(=O)(O)O)[C@@H](O)[C@H]2O)c2nc(N)[nH]c(=O)c21 [m^7GTP] | 2.3 ± 0.2 | 
4.45 ± 0.61 |  |  |  | Cn1c[n+]([C@@H]2O[C@H](COP(=O)(O)OP(=O)([O-])OP(=O)(O)OC[C@H]3O[C@@H](n4cnc5c(=O)[nH]c(N)nc54)[C@H](O)[C@@H]3O)[C@@H](O)[C@H]2O)c2nc(N)[nH]c(=O)c21 [m^7GpppG] | 8.6 ± 0.7 | 
19.2 ± 3.31 |  |  |  | Cn1c[n+]([C@@H]2O[C@H](COP(=O)(O)O)[C@@H](O)[C@H]2O)c2nc(N)[nH]c(=O)c21 [m^7GMP] | > 50 | 
 |  |  |  | Nc1nc2c(ncn2[C@@H]2O[C@H](COP(=O)(O)OP(=O)(O)OP(=O)(O)OC[C@H]3O[C@@H](n4c[n+](Cc5ccccc5)c5c(=O)[nH]c(N)nc54)[C@H](O)[C@@H]3O)[C@@H](O)[C@H]2O)c(=O)[nH]1 [bn^7GpppG] |  | times more potent inhibition than the standard dinucleotide m^7GpppG [2]: approximately 1.5
1.8 ± 0.21 | 10.67 | 2.47 | 13.3 ± 3.45 | COc1cccc(OC)c1OCCCn1cc(CNc2nc3c(c(=O)[nH]2)[n+](C)cn3[C@@H]2O[C@H](COP(=O)([O-])O)[C@@H](O)[C@H]2O)nn1 [compound 2, (4-(diOCH3-bn)-tz-CH2)2m^7GMP] | 2 ± 0.1 | Relative Change in Affinity to m^7GMP [3]: 1.8
 |  |  |  | (4-(diOCH3-bn)-tz-CH2)^2m^7GpppG |  | times more potent inhibition than the standard dinucleotide m^7GpppG [2]: ~6.9
 |  |  |  | Nc1nc2c(c(=O)[nH]1)[n+](Cc1ccccc1)cn2[C@@H]1O[C@H](COP(=O)([O-])O)[C@@H](O)[C@H]1O [compound 1, 7-benzylguanosine monophosphate] |  | inhibitory properties compared to m^7GMP (times better) [4]: 1.5
2.7 ± 0.3 | 7.11 | 1.64 | 14.7 ± 1.14 | COc1cccc(OC)c1OCCCn1cc(CNc2nc3c(c(=O)[nH]2)[n+](Cc2ccccc2)cn3[C@@H]2O[C@H](COP(=O)([O-])O)[C@@H](O)[C@H]2O)nn1 [compound 3] |  | solubility in water [5]: only partially soluble in water; Relative Change in Affinity to m^7GMP [3]: 1.7
0.24 ± 0.02 | 80.08 | ~18 | 3.58 ± 1.09 | COc1cccc(OC)c1OCCCn1cc(CNc2nc3c(c(=O)[nH]2)[n+](Cc2ccccc2)cn3[C@@H]2O[C@H](COP(=O)(O)OP(=O)([O-])OP(=O)(O)OC[C@H]3O[C@@H](n4cnc5c(=O)[nH]c(N)nc54)[C@H](O)[C@@H]3O)[C@@H](O)[C@H]2O)nn1 [compound 4] |  | Inhibition Relative to m^7GpppG IC50^DMSO (m^7GpppG)/ IC50^DMSO (Cap Analogue) [1, 6]: 18.54; Relative Change in Affinity to m^7GMP [3, 6]: 6.8; ΔTm of heIF4E ([3]; DSF, below a 10 μM final concentration): ~ 10 °C
